From patent publication US4262004A, “2,3-Dihydro-imidazo[2,1-b]benzothiazole compositions to treat depressions” (Janssen Pharmaceutica, N.V., priority 1979, dated 1981)
pIC50: −log10 of the molar value. Where a name gives a salt, the structure may show the parent alone. Read-outs that look alike come from different tables or passages of the source.

Experiments:
[1] = target: T1, monoamine oxidase (type B enzyme, β-phenylethylamine substrate) (Rattus norvegicus, UniProt P19643); test: in-vitro monoamine oxidase inhibition, [14C]phenylethylamine hydrochloride as substrate; assay type: biochemical; conditions: monoamine oxidase extract of Wistar rat tissue, pH 7.4, 37° C., 20 minutes
T1 sequence (P19643 1-520): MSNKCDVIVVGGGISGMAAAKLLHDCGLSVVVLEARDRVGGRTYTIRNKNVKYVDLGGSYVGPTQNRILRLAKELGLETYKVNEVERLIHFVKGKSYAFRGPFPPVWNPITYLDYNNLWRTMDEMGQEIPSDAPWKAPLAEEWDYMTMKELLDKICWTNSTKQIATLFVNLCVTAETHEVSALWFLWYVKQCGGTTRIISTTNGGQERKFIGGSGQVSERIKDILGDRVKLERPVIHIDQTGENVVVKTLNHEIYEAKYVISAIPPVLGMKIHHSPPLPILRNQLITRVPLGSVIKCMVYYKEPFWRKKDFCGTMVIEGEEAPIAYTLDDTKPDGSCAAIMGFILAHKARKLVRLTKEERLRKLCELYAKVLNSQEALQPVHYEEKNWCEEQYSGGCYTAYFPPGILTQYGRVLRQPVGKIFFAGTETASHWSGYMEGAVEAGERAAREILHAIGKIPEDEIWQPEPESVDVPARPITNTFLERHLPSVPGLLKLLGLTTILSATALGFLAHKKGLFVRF

[2] = target: T2, monoamine oxidase (type A enzyme, tryptamine substrate) (Rattus norvegicus, UniProt P21396); test: in-vitro monoamine oxidase inhibition, [14C]tryptamine as substrate; assay type: biochemical; conditions: Table I; monoamine oxidase extract of Wistar rat tissue, pH 7.4, 37° C., 20 minutes; read-out: I.C.50-value using as substrate [14C]tryptamine
T2 sequence (P21396 1-526): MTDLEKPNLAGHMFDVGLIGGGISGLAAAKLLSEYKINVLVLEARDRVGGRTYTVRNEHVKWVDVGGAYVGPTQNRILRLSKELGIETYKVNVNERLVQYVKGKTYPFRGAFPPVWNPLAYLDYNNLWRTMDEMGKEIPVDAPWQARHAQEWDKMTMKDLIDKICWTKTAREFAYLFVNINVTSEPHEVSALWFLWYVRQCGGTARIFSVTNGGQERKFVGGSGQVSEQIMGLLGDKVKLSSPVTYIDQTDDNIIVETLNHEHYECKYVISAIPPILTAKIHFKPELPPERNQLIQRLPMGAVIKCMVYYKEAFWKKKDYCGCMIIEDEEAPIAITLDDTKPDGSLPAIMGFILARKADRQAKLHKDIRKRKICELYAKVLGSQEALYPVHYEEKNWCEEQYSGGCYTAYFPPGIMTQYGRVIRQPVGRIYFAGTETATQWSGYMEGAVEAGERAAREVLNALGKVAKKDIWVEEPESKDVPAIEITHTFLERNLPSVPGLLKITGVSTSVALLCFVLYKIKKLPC

[3] = Table I, read-out: I.C.50-value using as substrate [14C]phenylethylamine . HCl

SMILES	pIC50 [1, 3]	pIC50 [2]	pIC50 ([1]; Table 2, read-out: I.C.50-value using as substrate [14C]phenylethylamine hydrochloride)
CCOC(=O)C(=CNc1ccc2c(c1)SC1=NCCN12)C(=O)OCC [7-NHCHC(COOEt)2, diethyl 2-[(2,3-dihydroimidazo[2,1-b]benzothiazol-7-yl-amino)methylene]propanedioate]	7.52	5.47	–
O=C(c1ccccc1)c1ccc2c(c1)N1CCN=C1S2 [6-COC6 H5, (2,3-dihydroimidazo[2,1-b]benzothiazol-6-yl)phenylmethanone monohydrochloride]	5.52	6.66	–
CC(C)Nc1ccc2c(c1)N1CCN=C1S2 [6-NHi . C3 H7, 2,3-dihydro-N-(1-methylethyl)imidazo[2,1-b]benzothiazol-6-amine]	4.47	7.74	–
c1ccc2c3c(ccc2c1)SC1=NCCN13 [5,6-(CHCHCHCH)]	5.40	8.22	–
COc1cc(CNc2ccc3c(c2)SC2=NCCN23)cc(OC)c1OC [7-NHCH2 [3,4,5-(OCH3)3C6 H2]]	7.15	4.70	–
CCCCCCN(C=C(C(=O)OCC)C(=O)OCC)c1ccc2c(c1)SC1=[N+](CCCCCC)CCN12	–	–	5.74
CCCN(C=C(C(=O)OCC)C(=O)OCC)c1ccc2c(c1)SC1=NCCN12 [7-N(C3 H7)CHC(COOEt)2]	5.66	6.66	–
CCc1ccc2c(c1)N1CCN=C1S2 [6-C2 H5]	5.00	6.85	–
CCNc1ccc2c(c1)N1CCN=C1S2 [6-NHC2 H5, N-ethyl-2,3-dihydroimidazo[2,1-b]benzothiazol-6-amine]	4.40	7.74	–
CCCc1ccc2c(c1)SC1=NC(c3ccccc3)CN12 (stereo not shown) [2-C6 H5,7-C3 H7]	5.22	5.60	–
c1ccc(Oc2ccc3c(c2)SC2=NCCN23)cc1 [7-OC6 H5]	7.02	6.35	–
c1c2c(cc3c1SC1=NCCN13)CCC2 [6,7-(CH2)3]	4.92	7.26	–
CCC(CC)Nc1ccc2c(c1)N1CCN=C1S2 [6-NHCH(C2 H5)2]	5.74	8.22	–
C#CCNc1ccc2c(c1)SC1=NCCN12	4.26	6.10	–
CC(CO)Nc1ccc2c(c1)N1CCN=C1S2 (stereo not shown)	–	6.89	–
Clc1ccc(CNc2ccc3c(c2)N2CCN=C2S3)cc1 [6-NHCH2(4-ClC6 H4)]	7.15	7.59	–
CCNc1ccc2c(c1)SC1=NCCN12 [7-NHC2 H5]	4.35	7.00	–
CCCCCCc1ccc2c(c1)SC1=NCCN12 [7-C6 H13]	7.40	7.70	–

Continued, values first:

pIC50 [1, 3]	pIC50 [2]	pIC50 ([1]; Table 2, read-out: I.C.50-value using as substrate [14C]phenylethylamine hydrochloride)	SMILES
4.85	6.55	–	COc1ccc2c(c1)SC1=NCCN12 [Example 7-OCH3]
4.07	5.74	–	CC(=O)Nc1ccc2c(c1)N1CCN=C1S2 [Example 6-NHCOCH3, N-(2,3-dihydroimidazo[2,1-b]benzothiazol-6-yl)acetamide]
7.19	7.92	–	c1cc2c(cc1C1CCCCC1)SC1=NCCN12 [7-c . C6 H 11]
5.40	6.66	–	Cc1cccc2c1N1CCN=C1S2 [Example 5-CH3]
4.40	8.70	–	CCNc1cccc2c1SC1=NCCN12 [8-NHC2 H5]
–	5.70	–	Oc1ccc2c(c1)SC1=NCCN12 [Example 7-OH, 2,3-dihydroimidazo[2,1-b]benzothiazol-7-ol monohydrobromide]
6.22	6.92	–	Clc1cccc2c1N1CCN=C1S2 [Example 5-Cl]
4.92	5.80	–	NC(=O)Nc1ccc2c(c1)N1CCN=C1S2 [Example 6-NHCONH2, N-(2,3-dihydroimidazo[2,1-b]benzothiazol-6-yl)urea]
